Data reported in patent US20250073255A1, “USE OF FA-TYPE LIPID COMPOUNDS IN PREPARATION OF NUCLEIC ACID DELIVERY REAGENT AND RELATED PRODUCT” (BEIJING BAISHIKANG PHARMACEUTICAL TECHNOLOGY (BSJPHARMA) …, priority 2021, published 2025).

Tested on: C57BL/6 male mice
Test: In vivo delivery study of lipid nucleic acid mixture (oral gavage, RT-qPCR of PGY-sRNA-26 in tissues)
Parameters: species or system mouse
Settings: for oral delivery of single-stranded sRNA nucleic acids into mouse blood / oral delivery of single-stranded sRNA nucleic acids into mouse brain tissue / oral delivery of single-stranded sRNA nucleic acids into mouse heart tissue / oral delivery of single-stranded sRNA nucleic acids into mouse intestinal tissue / oral delivery of single-stranded sRNA nucleic acids into mouse kidney tissue / oral delivery of single-stranded sRNA nucleic acids into mouse spleen tissue / oral delivery of single-stranded sRNA nucleic acids into mouse stomach tissue / oral delivery of single-stranded sRNA nucleic acids into mouse femur / oral delivery of single-stranded sRNA nucleic acids into mouse liver tissue / oral delivery of single-stranded sRNA nucleic acids into mouse lung tissue / oral delivery of single-stranded sRNA nucleic acids into mouse pancreatic tissue: 100 μg lipid:10 nmol PGY-sRNA-26, sampled after 12 hours; for oral delivery of single-stranded sRNA nucleic acids into mouse heart tissue: vs free uptake group; for oral delivery of single-stranded sRNA nucleic acids into mouse intestinal tissue: intestine; for oral delivery of single-stranded sRNA nucleic acids into mouse pancreatic tissue: pancreas; for overall delivery efficacy: delivering nucleic acids into each tissue and blood tested: 100 μg lipid:10 nmol PGY-sRNA-26, all tissues and blood tested
Method in brief: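 Lipid (100 μg) and 10 nmol 3'-methylated single-stranded PGY-sRNA-26 were heated at 90 °C for 15 min, then given by oral gavage to mice fasted 12 h. Controls were saline and free sRNA. Blood and tissues were taken at 12 h, and levels were measured by stem-loop RT-qPCR relative to U6.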

Structure (SMILES) | oral delivery of single-stranded sRNA nucleic acids into mouse blood | oral delivery of single-stranded sRNA nucleic acids into mouse brain tissue | oral delivery of single-stranded sRNA nucleic acids into mouse heart tissue | oral delivery of single-stranded sRNA nucleic acids into mouse intestinal tissue | oral delivery of single-stranded sRNA nucleic acids into mouse kidney tissue | oral delivery of single-stranded sRNA nucleic acids into mouse spleen tissue | oral delivery of single-stranded sRNA nucleic acids into mouse stomach tissue | oral delivery of single-stranded sRNA nucleic acids into mouse femur | oral delivery of single-stranded sRNA nucleic acids into mouse liver tissue | oral delivery of single-stranded sRNA nucleic acids into mouse lung tissue | oral delivery of single-stranded sRNA nucleic acids into mouse pancreatic tissue | overall delivery efficacy: delivering nucleic acids into each tissue and blood tested
CC(=O)CCC=C(C)CCC=C(C)C [Lipid 502, 6,10-dimethylundeca-5,9-dien-2-one] | can effectively orally deliver | can effectively orally deliver | can effectively orally deliver | can effectively orally deliver | can effectively orally deliver | can effectively orally deliver | can effectively orally deliver |  |  |  |  | 
CCCCCC/C=C\CCCCCCCC(=O)OCCCCCCCCCCCCCCCCCCCCCC [Lipid 823, docosyl (Z)-hexadec-9-enoate] | can effectively orally deliver | can effectively orally deliver | can effectively orally deliver | can effectively orally deliver | can effectively orally deliver | can effectively orally deliver | can effectively orally deliver | can effectively orally deliver | can effectively orally deliver | can effectively orally deliver | can effectively orally deliver | 
CC/C=C\C/C=C\C/C=C\CCCCCCCC(=O)OCCCCCCCCCCCC [Lipid 805, dodecyl (9Z,12Z,15Z)-octadeca-9,12,15-trienoate] | can effectively orally deliver | can effectively orally deliver | can effectively orally deliver | can effectively orally deliver | can effectively orally deliver | can effectively orally deliver | can effectively orally deliver | can effectively orally deliver | can effectively orally deliver | can effectively orally deliver | can effectively orally deliver | 
CCCCCCCCCC(=O)OC/C=C(\C)CC/C=C(\C)CCC=C(C)C [Lipid 803, [(2E,6E)-3,7,11-trimethyldodeca-2,6,10-trienyl]decanoate] | can effectively orally deliver | can effectively orally deliver | can effectively orally deliver | can effectively orally deliver | can effectively orally deliver | can effectively orally deliver | can effectively orally deliver | can effectively orally deliver | can effectively orally deliver | can effectively orally deliver | can effectively orally deliver | best delivery efficacy
CCCCCCC(=O)OC/C=C(\C)CC/C=C(\C)CCC=C(C)C [Lipid 809, [(2E,6E)-3,7,11-trimethyldodeca-2,6,10-trienyl]heptanoate] | can effectively orally deliver | can effectively orally deliver | can effectively orally deliver | can effectively orally deliver | can effectively orally deliver | can effectively orally deliver | can effectively orally deliver | can effectively orally deliver | can effectively orally deliver | can effectively orally deliver | can effectively orally deliver | 
CCCCCCCC(C)C [Lipid 528, 2-methylnonane] | can effectively orally deliver | can effectively orally deliver | can effectively orally deliver | can effectively orally deliver | can effectively orally deliver | can effectively orally deliver | can effectively orally deliver | can effectively orally deliver | can effectively orally deliver | can effectively orally deliver |  | best delivery efficacy
CCCCC(N)=O [Lipid 610] |  |  |  |  | can effectively orally deliver | can effectively orally deliver | can effectively orally deliver | can effectively orally deliver |  | can effectively orally deliver |  | 
